Assay results as given in US10240210B2, “Methods of stratifying patients for treatment with retinoic acid receptor-alpha agonists” (Syros Pharmaceuticals, Inc., priority 2016, dated 2019).

Assays:
OCI-AML3 = assay: AML cell line anti-proliferation (cell viability, ATPlite or CyQuant); assay type: cell-based, human
Nomo-1 = assay: as above; assay type: cell-based, human
PL21 = assay: as above; assay type: cell-based; conditions: Homo sapiens, PL-21, 240 h, five or ten days incubation, read-out: Tamibarotene anti-proliferative potency (EC50)
OCI-AML2 = assay: as above; assay type: cell-based; conditions: Homo sapiens, 240 h, five or ten days incubation, read-out: Tamibarotene anti-proliferative potency (EC50)
HEL = assay: as above; assay type: cell-based; conditions: Homo sapiens, 240 h, five or ten days incubation, read-out: Tamibarotene anti-proliferative potency (EC50)
KG-1a = assay: as above; assay type: cell-based, human
HL60 = assay: as above; assay type: cell-based; conditions: Homo sapiens, HL-60, 240 h; HL60 (APL cell line); five or ten days incubation; read-out: Tamibarotene anti-proliferative potency (EC50)
OCI-M1 = assay: as above; assay type: cell-based, human
THP-1 = assay: as above; assay type: cell-based; conditions: Homo sapiens, 240 h; THP-1 AML cell line; five or ten days incubation; read-out: Tamibarotene anti-proliferative potency (EC50)
MV4-11 = assay: as above; assay type: cell-based, human
Sig-M5 = assay: as above; assay type: cell-based, human
EOL-1 = assay: as above; assay type: cell-based; conditions: Homo sapiens, EOL1, 240 h; EOL-1 AML cell line; five or ten days incubation; read-out: Tamibarotene anti-proliferative potency (EC50)
Kasumi-1 = assay: as above; assay type: cell-based, human
AM7577 xenografts = assay: AML patient sample-derived xenograft model; assay type: in vivo, BALB/c nude immunocompromised mice; conditions: 6 mg per kg orally daily
Procedure: (§1) Different AML patient sample (AM8096, AM5512, AM7577 and AM7440)-derived xenograft models in BALB/c nude immunocompromised mice are prepared by Crown Biosciences (Beijing, China) essentially as follows.
(§2) Approximately 2×10^6 cells from each patient sample are suspended in 100 μL PBS and injected into separate mice (n=3 for each different patient sample and for the control) by IV tail injection. For AM5512, AM7577 and AM7440 xenografts, tumor burden is considered high enough to start treatment when the concentration of human CD45^+ cells reaches ˜1-5% in the animal's peripheral blood. Human CD45^+ cells are detected in mouse blood (obtained via eye bleeds) using a fluorescence activated cell sorter and FITC anti-human CD45 (Biolegend, Cat#304037). For AM8096 xenografts, treatment is begun 40 days after injection of cells.
(§3) Tamibarotene is administered orally in pH 8 adjusted PBS, 1% DMSO on a daily schedule at a final dose of 6 mg per kg body weight in a 10 ml/kg volume. Mice in the vehicle arm are given the same schedule, volume, and formulation, but lacking tamibarotene. Human CD45^+ cell levels in peripheral blood from the treated animals and control animals are measured once a week.

AM5512 xenografts = assay: AML patient sample-derived xenograft model; assay type: in vivo, BALB/c nude immunocompromised mice; conditions: 6 mg per kg orally daily, after 35 days of treatment
Procedure: as §1, §2, §3

AM7440 xenografts = assay: AML patient sample-derived xenograft model; assay type: in vivo, BALB/c nude immunocompromised mice; conditions: 6 mg per kg orally daily
Procedure: as §1, §2, §3

AM8096 xenografts = assay: AML patient sample-derived xenograft model; assay type: in vivo, BALB/c nude immunocompromised mice; conditions: 6 mg per kg orally daily, after 35 days of treatment
Procedure: as §1, §2, §3

EC50 (OCI-AML3; Homo sapiens, OCI-AML-3, 240 h, OCI-AML3 AML cell line, five or ten days incubation, read-out: Tamibarotene anti-proliferative potency (EC50)): 0.34 nM | EC50 (OCI-AML2): 0.34 nM | EC50 (HL60): 1.64 nM | EC50 (OCI-M1; Homo sapiens, 240 h, OCI-M1 AML cell line, five or ten days incubation, read-out: Tamibarotene anti-proliferative potency (EC50)): > 50000 nM | EC50 (THP-1): 0.95 nM | EC50 (MV4-11; Homo sapiens, 240 h, MV4-11 AML cell line, five or ten days incubation, read-out: Tamibarotene anti-proliferative potency (EC50)): 0.17 nM
SMILES: CC1(C)CCC(C)(C)c2cc(NC(=O)c3ccc(C(=O)O)cc3)ccc21 [tamibarotene]
sensitivity of cell line to tamibarotene (OCI-AML3; OCI-AML3): sensitive | EC50 (Nomo-1; Homo sapiens, 240 h, Nomo-1 AML cell line, five or ten days incubation, read-out: Tamibarotene anti-proliferative potency (EC50)): 0.48 nM | sensitivity of cell line to tamibarotene (Nomo-1; NOMO-1): sensitive | EC50 (PL21): 1.41 nM | EC50 (HEL): > 50000 nM | EC50 (KG-1a; Homo sapiens, 240 h, KG-1a AML cell line, five or ten days incubation, read-out: Tamibarotene anti-proliferative potency (EC50)): > 50000 nM | sensitivity of cell line to tamibarotene (KG-1a; KG1a): insensitive | sensitivity of cell line to tamibarotene (OCI-M1; OCI-M1): insensitive | sensitivity of cell line to tamibarotene (MV4-11; MV-4-11): sensitive | EC50 (Sig-M5; Homo sapiens, 240 h, Sig-M5 AML cell line, five or ten days incubation, read-out: Tamibarotene anti-proliferative potency (EC50)): 0.46 nM | sensitivity of cell line to tamibarotene (Sig-M5; Sig-M5): sensitive | EC50 (EOL-1): 0.89 nM | EC50 (Kasumi-1; Homo sapiens, 240 h, Kasumi-1 AML cell line, five or ten days incubation, read-out: Tamibarotene anti-proliferative potency (EC50)): > 50000 nM | sensitivity of cell line to tamibarotene (Kasumi-1; Kasumi-1): insensitive | tumor volume between tamibarotene treated and vehicle treated animals, overall or in blood, bone marrow or spleen (AM7577 xenografts): no significant reduction | total % of CD45+ cells and % of CD45+ cells in blood, bone marrow and spleen, compared to the vehicle control (AM5512 xenografts): significant reduction | tumor volume between tamibarotene treated and vehicle treated animals, overall or in blood, bone marrow or spleen (AM7440 xenografts): no significant reduction | total % of CD45+ cells and % of CD45+ cells in blood, bone marrow and spleen, compared to the vehicle control (AM8096 xenografts): significant reduction
